Molecular target: GPX4
Format: biochemical
Settings: covalent; without GCTR

COC(=O)c1ccc([C@H]2c3[nH]c4ccccc4c3C[C@H](C(=O)OC)N2C(=O)CCl)cc1 [RSL3]
IC50: 12.4 µM

Reference: article PMC10963859 (Redox Biology, 2024)
